Our source for the IC50 values is patent publication US7205417B2, “Spiro compounds” (Banyu Pharmaceutical Co., Ltd., priority 2001, dated 2007).

This experiment concerns the target T1, human NPY Y5 receptor (Homo sapiens, UniProt Q15761).
T1 construct: expressed in transfected cells; host or cells: COS-7, CHO and LM(tk-) cells; vectors pcDNA3, pRc/RSV, pCI-neo; membrane preparation
T1 sequence (Q15761 1-445): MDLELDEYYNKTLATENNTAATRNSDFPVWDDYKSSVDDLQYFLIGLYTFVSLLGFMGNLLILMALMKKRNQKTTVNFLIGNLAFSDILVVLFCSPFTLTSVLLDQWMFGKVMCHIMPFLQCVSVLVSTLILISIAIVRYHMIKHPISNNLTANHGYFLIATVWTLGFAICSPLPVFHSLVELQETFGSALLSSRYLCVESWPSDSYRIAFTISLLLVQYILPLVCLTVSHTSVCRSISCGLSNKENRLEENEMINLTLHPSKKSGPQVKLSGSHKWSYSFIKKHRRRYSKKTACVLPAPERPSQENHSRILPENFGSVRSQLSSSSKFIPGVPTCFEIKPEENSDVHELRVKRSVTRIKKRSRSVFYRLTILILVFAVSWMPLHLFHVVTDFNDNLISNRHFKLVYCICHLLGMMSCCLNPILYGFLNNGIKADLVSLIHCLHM
Put plainly: NPY binding inhibition test. Conditions: [125I]peptideYY binding to membrane sample from cells expressing NPY Y5 receptor, 25° C., 2 hours; read-out: NPY receptors binding inhibition IC50. The text has this:
Pharmacological Test (NPY Binding Inhibition Test)
A sequence coding for human NPY Y5 receptor (c.f. International patent publication number W096/16542) was cloned into expression vectors pcDNA3, pRc/RSV (made by Invitrogen Inc.) and pCI-neo (made by Promega Inc.). The expression vectors thus obtained were transfected to host cells COS-7, CHO and LM(tk-) (American Type Culture Collection) by cationic lipid method (Proceedings of the National Academy of Sciences of the United States of America, vol. 84: p. 7413(1987)) to give NPY Y5 receptor expression cells.
A membrane sample prepared from the cells which expressed NPY Y5 receptor was incubated together with a test compound and [^125I]peptideYY (made by NEN) (20,000 cpm) in an assay buffer (25 mM Tris buffer, pH 7.4, containing 10 mM magnesium chloride, 1 mM phenylmethylsulfonyl fluoride, 0.1% bacitracin and 0.5% bovine serum albumin) at 25° C. for 2 hours, then filtered through a glass filter GF/C and washed with 5 mM Tris buffer (pH7.4) containing 0.3% BSA. The radioactivity of the cake on the glass filter was measured. Non-specific binding was measured in the presence of 1 μM peptide YY, and 50% Inhibitory Concentration (IC50) of the test compound against specific peptideYY binding was determined (Endocrinology, vol. 131: p. 2090(1992)).
Consider `O=C1OC2(CCC(C(=O)NC3CCC(c4ccccc4)CC3)CC2)c2ccccc21` (stereo not drawn) [Example 1, trans-3′-oxo-N-(trans-4-phenylcyclohexyl)-spiro[cyclohexane-1,1′(3′H)-isobenzofuran]-4-carboxamide], for which the IC50 is 2.5 nM. The same measure for `O=C1OC2(CCC(C(=O)NC3CCN(c4ccccc4F)CC3)CC2)c2ccccc21` (stereo not drawn) [Example 5, Trans-N-[1-(2-fluorophenyl)-4-piperidyl]-3′-oxo-spiro[cyclohexane-1,1′(3′H)-isobenzofuran]-4-carboxamide]: 1.7 nM. On to `O=C1OC2(CCC(C(=O)NC3CCC(c4cccc(F)c4)CC3)CC2)c2ncccc21` (stereo not drawn) [Example 27, Trans-N-[trans-4-(3-fluorophenyl)cyclohexyl]-3-oxospiro[7-azaisobenzofuran-1(3H),1′-cyclohexane]-4′-carboxamide], for which the concentration for half-maximal inhibition (IC50) is 3.6 nM. For `O=C1OC2(CCC(C(=O)NC(CNCc3ccccc3)Cc3ccccc3)CC2)c2ccccc21` (centres unmarked) [Example 32] the value was 1.7 nM; for `CS(=O)(=O)N1CC2(CCC(C(=O)NC3CCN(c4cccc(F)c4)CC3)CC2)c2ccccc21` (stereo not drawn) [Example 36, Trans-N-[1-(3-fluorophenyl)-4-piperidyl]-1-methanesulfonyl-spiro[indoline-3,1′-cyclohexane]-4′-carboxamide], 0.8 nM. The same measure for `CS(=O)(=O)N1CC2(CCC(C(=O)NC3CCN(c4ccccc4)C3)CC2)c2ccccc21` [Example 41, Trans-1-methanesulfonyl-N-[(3S)-1-phenyl-3-pyrrolidinyl]spiro[indoline-3,1′-cyclohexane]-4′-carboxamide]: 1.2 nM; for `CS(=O)(=O)N1CC2(CCC(C(=O)NC(CNCc3ccccc3)Cc3ccccc3)CC2)c2ccccc21` [Example 45, Trans-N-[(S)-1-benzyl-2-(benzylamino)ethyl]-1-methylsulfonylspiro[indoline-3,1′-cyclohexane]-4′-carboxamide]: 0.69 nM; for `CS(=O)(=O)N1CC2(CCC(C(=O)NC(Cc3ccncc3)C(=O)NCc3ccccc3)CC2)c2ccccc21` (stereo not drawn) [Example 46, Trans-N-[1-benzylcarbamoyl-2-(4-pyridyl)ethyl]-1-methylsulfonylspiro[indoline-3,1′-cyclohexane]-4′-carboxamide]: 2 nM.
